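Results reflect a 48-hour exposure of cells in 96-well plates to compound at five concentrations. Abbreviation: GI50, concentration required for 50% inhibition of growth. TGI is the concentration that stops growth completely.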
Columns and labels:
Assay in all cases: DTP human tumour cell line panel, 48 h
HL-60(TB) leukemia = test system: HL-60(TB) leukemia
NCI-H522 lung = test system: NCI-H522 lung
UACC-257 melanoma = test system: UACC-257 melanoma
HCT-116 colon = test system: HCT-116 colon
T-47D breast = test system: T-47D breast
UO-31 renal = test system: UO-31 renal
CCRF-CEM leukemia = test system: CCRF-CEM leukemia
SR leukemia = test system: SR leukemia
OVCAR-5 ovarian = test system: OVCAR-5 ovarian
786-0 renal = test system: 786-0 renal
EKVX NSCLC = test system: EKVX NSCLC
OVCAR-4 ovarian = test system: OVCAR-4 ovarian
RPMI-8226 leukemia = test system: RPMI-8226 leukemia
MALME-3M melanoma = test system: MALME-3M melanoma
MDA-MB-435 = test system: MDA-MB-435
HOP-92 NSCLC = test system: HOP-92 NSCLC
ACHN renal = test system: ACHN renal
OVCAR-8 ovarian = test system: OVCAR-8 ovarian
MCF7 breast = test system: MCF7 breast
SK-MEL-5 melanoma = test system: SK-MEL-5 melanoma
LOX IMVI melanoma = test system: LOX IMVI melanoma
COLO 205 colon = test system: COLO 205 colon
A549 NSCLC = test system: A549 NSCLC
SK-MEL-28 melanoma = test system: SK-MEL-28 melanoma
SF-268 CNS = test system: SF-268 CNS
U251 CNS = test system: U251 CNS
NCI-H23 lung = test system: NCI-H23 lung
SF-295 CNS = test system: SF-295 CNS
A498 renal = test system: A498 renal
SW-620 colon = test system: SW-620 colon
MOLT-4 leukemia = test system: MOLT-4 leukemia
IGROV1 ovarian = test system: IGROV1 ovarian
SK-OV-3 ovarian = test system: SK-OV-3 ovarian
SF-539 CNS = test system: SF-539 CNS
RXF 393 renal = test system: RXF 393 renal
MDA-MB-231 breast = test system: MDA-MB-231 breast
PC-3 prostate = test system: PC-3 prostate
NCI-H226 lung = test system: NCI-H226 lung
SK-MEL-2 melanoma = test system: SK-MEL-2 melanoma
HS 578T breast = test system: HS 578T breast
BT-549 breast = test system: BT-549 breast
KM12 colon = test system: KM12 colon
NCI-H460 lung = test system: NCI-H460 lung
SN12C renal = test system: SN12C renal
M14 melanoma = test system: M14 melanoma
HCT-15 colon = test system: HCT-15 colon
SNB-19 CNS = test system: SNB-19 CNS
TK-10 renal = test system: TK-10 renal
OVCAR-3 ovarian = test system: OVCAR-3 ovarian
NCI/ADR-RES ovarian = test system: NCI/ADR-RES ovarian
K-562 leukemia = test system: K-562 leukemia
UACC-62 melanoma = test system: UACC-62 melanoma
SNB-75 CNS = test system: SNB-75 CNS
HCC-2998 colon = test system: HCC-2998 colon
HOP-62 NSCLC = test system: HOP-62 NSCLC
HT29 colon = test system: HT29 colon

C/C=C\C(=O)O[C@@H]1CC2O[C@@H]3C=C(C)C(=O)C[C@]3(C)[C@]1(C)[C@]21CO1
GI50 (HL-60(TB) leukemia): 522 nM | TGI (HL-60(TB) leukemia): 1350 nM | GI50 (NCI-H522 lung): 486 nM | TGI (NCI-H522 lung): 1620 nM | GI50 (UACC-257 melanoma): 599 nM | TGI (UACC-257 melanoma): 2110 nM | GI50 (HCT-116 colon): 429 nM | TGI (HCT-116 colon): 2630 nM | GI50 (T-47D breast): 529 nM | TGI (T-47D breast): 1970 nM | GI50 (UO-31 renal): 712 nM | TGI (UO-31 renal): 4310 nM | GI50 (CCRF-CEM leukemia): 422 nM | TGI (CCRF-CEM leukemia): 25000 nM | GI50 (SR leukemia): 670 nM | TGI (SR leukemia): 3040 nM | GI50 (OVCAR-5 ovarian): 796 nM | TGI (OVCAR-5 ovarian): 3820 nM | GI50 (786-0 renal): 615 nM | TGI (786-0 renal): 3370 nM | GI50 (EKVX NSCLC): 873 nM | TGI (EKVX NSCLC): 5700 nM | GI50 (OVCAR-4 ovarian): 632 nM | TGI (OVCAR-4 ovarian): 1930 nM | GI50 (RPMI-8226 leukemia): 522 nM | TGI (RPMI-8226 leukemia): 1500 nM | GI50 (MALME-3M melanoma): 612 nM | TGI (MALME-3M melanoma): 2370 nM | GI50 (MDA-MB-435): 660 nM | TGI (MDA-MB-435): 2670 nM | GI50 (HOP-92 NSCLC): 538 nM | TGI (HOP-92 NSCLC): 1890 nM | GI50 (ACHN renal): 642 nM | TGI (ACHN renal): 2770 nM | GI50 (OVCAR-8 ovarian): 756 nM | TGI (OVCAR-8 ovarian): 5490 nM | GI50 (MCF7 breast): 459 nM | TGI (MCF7 breast): 14900 nM | GI50 (SK-MEL-5 melanoma): 528 nM | TGI (SK-MEL-5 melanoma): 1370 nM | GI50 (LOX IMVI melanoma): 209 nM | TGI (LOX IMVI melanoma): 1640 nM | GI50 (COLO 205 colon): 459 nM | TGI (COLO 205 colon): 1160 nM | GI50 (A549 NSCLC): 795 nM | TGI (A549 NSCLC): 10300 nM | GI50 (SK-MEL-28 melanoma): 471 nM | TGI (SK-MEL-28 melanoma): 1560 nM | GI50 (SF-268 CNS): 743 nM | TGI (SF-268 CNS): 5450 nM | GI50 (U251 CNS): 648 nM | TGI (U251 CNS): 5600 nM | GI50 (NCI-H23 lung): 587 nM | TGI (NCI-H23 lung): 2140 nM | GI50 (SF-295 CNS): 715 nM | TGI (SF-295 CNS): 4770 nM | GI50 (A498 renal): 676 nM | TGI (A498 renal): 2380 nM | GI50 (SW-620 colon): 634 nM | TGI (SW-620 colon): 6280 nM | GI50 (MOLT-4 leukemia): 581 nM | TGI (MOLT-4 leukemia): 2240 nM | GI50 (IGROV1 ovarian): 842 nM | TGI (IGROV1 ovarian): 6440 nM | GI50 (SK-OV-3 ovarian): 896 nM | TGI (SK-OV-3 ovarian): 6560 nM | GI50 (SF-539 CNS): 622 nM | TGI (SF-539 CNS): 1540 nM | GI50 (RXF 393 renal): 499 nM | TGI (RXF 393 renal): 1620 nM | GI50 (MDA-MB-231 breast): 604 nM | TGI (MDA-MB-231 breast): 2030 nM | GI50 (PC-3 prostate): 799 nM | TGI (PC-3 prostate): 8120 nM | GI50 (NCI-H226 lung): 648 nM | TGI (NCI-H226 lung): 4360 nM | GI50 (SK-MEL-2 melanoma): 468 nM | TGI (SK-MEL-2 melanoma): 1480 nM | GI50 (HS 578T breast): 723 nM | TGI (HS 578T breast): 2310 nM | GI50 (BT-549 breast): 699 nM | TGI (BT-549 breast): 1920 nM | GI50 (KM12 colon): 567 nM | TGI (KM12 colon): 5550 nM | GI50 (NCI-H460 lung): 668 nM | TGI (NCI-H460 lung): 4400 nM | GI50 (SN12C renal): 643 nM | TGI (SN12C renal): 3890 nM | GI50 (M14 melanoma): 431 nM | TGI (M14 melanoma): 962 nM | GI50 (HCT-15 colon): 671 nM | TGI (HCT-15 colon): 16500 nM | GI50 (SNB-19 CNS): 565 nM | TGI (SNB-19 CNS): 3330 nM | GI50 (TK-10 renal): 664 nM | TGI (TK-10 renal): 2500 nM | GI50 (OVCAR-3 ovarian): 783 nM | TGI (OVCAR-3 ovarian): 3080 nM | GI50 (NCI/ADR-RES ovarian): 783 nM | TGI (NCI/ADR-RES ovarian): 8300 nM | GI50 (K-562 leukemia): 507 nM | TGI (K-562 leukemia): 4480 nM | GI50 (UACC-62 melanoma): 653 nM | TGI (UACC-62 melanoma): 2420 nM | GI50 (SNB-75 CNS): 470 nM | TGI (SNB-75 CNS): 1960 nM | GI50 (HCC-2998 colon): 769 nM | TGI (HCC-2998 colon): 2720 nM | GI50 (HOP-62 NSCLC): 639 nM | TGI (HOP-62 NSCLC): 1980 nM | GI50 (HT29 colon): 534 nM | TGI (HT29 colon): 2330 nM
